The conditions of series [1]: peripheral administration; cited from earlier work.
For series [2] the following is noted: cited from earlier work.
For series [3] the following is noted: peripheral administration; cited from earlier work. The source holds these as a separate data set.
Another series deals with AcCh receptors. Conditions: background statement; cited from earlier work.
The subject of the next series is pain threshold in mice. The experiment in a line: Mouse Grid Shock (pain threshold). The series is classed as in vivo. The note with it: ip, read-out: Grid shock MED. As for the experimental part: The mouse grid consists of a perspex cage with wire grid bottom and a perspex lid, on which is placed a microphone sensitive to the frequency of mouse-squeak. A stimulator with motordriven potentiometer applies a sequence of square wave impulses of continuously increasing milliamperage to the grid. Frequence of impulses 20 cycles/sec., duration 5 msec. Milliamperage is recorded on a digital amperemter connected to the stimulator. Activation of the microphone by a mouse-squeak cuts off the current and the final milliamperage appear on the meter.
Five mice are used for each dose level. Each mouse serves as its own control. Prior to the administration of test substance the animals are placed on the grid one at a time, and the pain threshold is determined by increasing the current intensity until the mouse squeaks. The pain threshold may be read on the milliampermeter. Fifteen minutes and 30 minutes after administration of test substance the mice are tested again and the pain thresholds recorded.
Analgesic effect is present when the pain threshold is increased over the predosing value (control value). The results are stated as % increase in pain threshold calculated on the basis of the control value. The registration can also be done as an on-line procedure. In this case the punching instruction and punching cards will be provided automatically, and the results will be registered as a minimal effective dose (MED) determined after van der Waerden's X-test.

The test system of series [4] is heat stimulus reaction in rats. The experiment in a line: Hot Plate Test. The series is classed as in vivo. Conditions: Rattus norvegicus, sc, 0.5 h, s.c., 55° C. hot plate, 30 minutes after injection. As for the experimental part:
A group of 10 rats was used for each dose. Each rat was placed on a 55° C. hot plate and the reaction time in seconds was recorded from the moment the rat was placed on the plate until the rat reacted to the heat stimulus. The criteria for reaction were licking of paws, lifting of legs or jumping. The rat was removed from the plate immediately after the reaction. The rat was rejected if the reaction time was more than 10 seconds. After control testing the test substance was injected subcutaneously. The rat was tested on the hot plate 30 minutes after the injection and the reaction times were recorded. A cut-off time of 30 seconds was used. The results were expressed as mean percent effect (MPE), and ED50 values were calculated.

In series [5] the test system is muscarinic cholinergic receptors (guinea pig ileum). The experiment in a line: Muscarinic cholinergic agonism, guinea pig ileum. The series is classed as cell-based. The note with it: Cavia porcellus; isolated guinea pig ileum, contraction, log-probit analysis; read-out: Musc. agonism ileum ED50. As for the experimental part: Muscarinic cholinergic agonism, guinea pig ileum
Tyrode solution (NaCl 137 mM, KCl 2.7 mM, CaCl2 1.8 mM, MgCl2 1.1 mM, NaH2 PO4 0.32 mM, NaHCO3 4.8 mM, glucose 5.0 mM) foregassed with oxygen.
A guinea pig is killed by a blow on its head and exsanguinated. The caudal part (about 15 cm) of ileum is removed and cleaned in Tyrode solution. Three ileum pieces (2.5-3.0 cm long) are cut and placed separately in 10 ml organ baths containing Tyrode solution. Each specimen is fixed to a pin in the bottom of the organ bath and connected through a spring to a Grass FT 03 transducer (isotonic measurement). The specimens are kept under a tone of 1.0 g.
Concentration response curves to acetylcholine and test drugs are obtained by adding alternately acetylcholine and the test drugs in Tyrode solution to the both in 3-6 different concentrations. Each concentration is allowed to exert its maximal contracting effect before the tissue is washed and the next concentration is added.
From the concentration effect curves the […] values for acetylcholine and the test drugs are calculated by log-probit analysis.

Series [6] has as its system isoniazide-induced seizures in mice. Description: Isoniazide antagonism (convulsions). In kind it is in vivo. The note with it: Mus musculus, ip, read-out: Isoniazide antagonism ED50. As for the experimental part:
Isoniazide 300 mg/kg s.c.
Five mice are used for each dose level. Immediately after administration of test substance, isoniazide 300 mg/kg is injected s.c. This dose of isoniazide induces intermittent tonic clonic seizures within 60 minutes.
The calculations are performed as an "on-line procedure" on the EDP-terminal. The results are recorded as % increase in time until convulsions occur and, ED50 values were determined.

In series [7] the target is muscarinic cholinergic receptors. The experiment in a line: 3H-PrBCM binding to muscarinic cholinergic receptors (brain). Conditions: rat whole brain minus cerebellum; 1.5 nM 3H-PrBCM, 30° C. As for the experimental part:
^3 --H-PrBCM binding to muscarinic cholinergic receptors
Whole brain minus cerebellum of a rat was homogenized in 10 vol icecold 0.32M sucrose, pH 7.4. The homogenate was centrifuged at 600 g for 10 minutes and the supernatant at 25000 g for 55 min. at 4° C. with rehomogenization of the pellet in 0.32M sucrose. Incubation tubes in triplicate received at 30° C. test substance and tissue suspension. After 10 min. of incubation ligand (NEN,28-44 Ci/mmol) was added (final conc. of ^3 H-PrBCM: 1.5 nM). After 15 min. of incubation the reaction was stopped by addition of sodiumthiosulphate. The samples were filtered through Whatman GF/B filters (25 mm). The tubes and filters were rinsed twice with buffer. Non-specific binding was determined in the presence of 2.5 μM atropine. IC50 values were calculated by log probit analysis.

[8] abbreviates: mice, minimal effective dose, increase in pain threshold, test substance i.p. (may be tested orally).
The mark [9] stands for this setting: mice, test compound i.p., isoniazide 300 mg/kg s.c., time until convulsions.

Read-outs that look alike come from different tables or passages of the source.

With `COC(=O)C1=CCCN(C)C1` [Arecoline, methyl 1-methyl-1,2,5,6-tetrahydropyridine-3-carboxylate], the “penetration of the BBB” value in [1] is “capable of penetrating the BBB after peripheral administration”. Also, in series [2], the “hydrolysis of ester group in vivo” value is reported as “very rapidly hydrolyzed in vivo”. Further, in [3], the central effects result is “very weak and frequently negligible central effects”. Moreover, in the series on AcCh receptors, the AcCh agonist result is reported as “AcCh agonist”.

For orientation: ED50 means the dose at which the effect has come halfway, by size or by number of responders. Take `Oc1noc2c1CNCC2` [THPO, 3-Hydroxy-4,5,6,7-tetrahydroisoxazolo[4,5-c]pyridinium bromide, reference compound]: in the series with pain threshold in mice, the minimal effective dose was more than 1500 µmol/kg. In addition, the ED50 in series [4] was more than 90 µmol/kg; in [6], more than 1500 µmol/kg. Further, the EC50 in [5] was more than 13 µM.

For orientation: IC50 means the concentration at which inhibition is half-maximal. A high value points to lower potency. On to `COc1noc2c1CNCC2` [O--Methyl-THPO, 3-Methoxy-4,5,6,7-tetrahydroisoxazolo[4,5-c]pyridine], for which, in the series with pain threshold in mice (setting [8]), the minimal effective dose is 26 µmol/kg. For the same compound, the values for the ED50 in series [4] and in series [6] (setting [9]) were 62 µmol/kg and 2.8 µmol/kg, respectively. The EC50 in series [5] worked out at 1.8 µM. Also, the IC50 in series [7] was determined as 45 µM.

Turning to `c1ccc(COc2noc3c2CNCC3)cc1` [O--Benzyl-THPO, 3-Benzyloxy-4,5,6,7-tetrahydroisoxazolo[4,5-c]pyridine], the minimal effective dose in the series on pain threshold in mice (setting [8]) is more than 150 µmol/kg. Further, the ED50 in series [4] is more than 75 µmol/kg; in series [6] (setting [9]), 19 µmol/kg. For the same compound, the EC50 in series [5] is more than 13 µM. In addition, the IC50 in series [7] is 32 µM.

On to `CC(C)COc1noc2c1CNCC2` [O--Isobutyl-THPO, 3-Isobutoxy-4,5,6,7-tetrahydroisoxazolo[4,5-c]pyridine], for which the minimal effective dose in the series on pain threshold in mice (setting [8]) was more than 86 µmol/kg. Moreover, the 50% effective dose (ED50) in [4] was more than 86 µmol/kg; in series [6] (setting [9]), 48 µmol/kg. For the same compound, in series [5], the EC50 is more than 13 µM. Also, the IC50 in [7] was more than 13 µM.

Consider `COc1noc2c1CNCC2C` (racemic) [O,7-Dimethyl-THPO, 3-Methoxy-7-methyl-4,5,6,7-tetrahydroisoxazolo[4,5-c]pyridine], for which the minimal effective dose with pain threshold in mice (setting [8]) turned out to be 98 µmol/kg. Moreover, the ED50 is more than 98 µmol/kg in series [4] and 110 µmol/kg in [6] (setting [9]). Further, the EC50 in [5] amounted to 13 µM. The same compound came in with an IC50 in series [7] of 12 µM.

Regarding `COc1noc2c1CN(Cc1ccccc1)CC2` [O--Methyl-5-Benzyl-THPO, 3-Methoxy-5-benzyl-4,5,6,7-tetrahydroisoxazolo[4,5-c]pyridine], in the series on pain threshold in mice (setting [8]), the minimal effective dose was more than 71 µmol/kg. Further, the ED50 in [4] was more than 71 µmol/kg; in [6] (setting [9]) it was 71 µmol/kg. Moreover, in series [5], the EC50 was more than 13 µM. Moreover, the IC50 in series [7] was more than 50 µM.

Regarding `CC=CCOc1noc2c1CNCC2` [O--Crotyl-THPO, 3-(2-Butenyloxy)-4,5,6,7-tetrahydroisoxazolo[4,5-c]pyridine], the minimal effective dose in the series with pain threshold in mice (setting [8]) is 170 µmol/kg. The ED50 in series [4] is more than 87 µmol/kg; in [6] (setting [9]), less than 43 µmol/kg. For the same compound, the EC50 in [5] is more than 13 µM. Besides, the half-inhibitory concentration (IC50) in series [7] is 14 µM.

Consider `CCCCOc1noc2c1CNCC2` [O--Butyl-THPO, 3-Butoxy-4,5,6,7-tetrahydroisoxazolo[4,5-c]pyridine], for which the minimal effective dose in the series on pain threshold in mice (setting [8]) was more than 170 µmol/kg. Moreover, the ED50 in [4] was more than 86 µmol/kg; in [6] (setting [9]), more than 170 µmol/kg. Besides, the EC50 in series [5] is more than 13 µM. The compound further had an IC50 in series [7] of 15 µM.

For `CCCOc1noc2c1CNCC2` [O--Propyl-THPO, 3-Propoxy-4,5,6,7-tetrahydroisoxazolo[4,5-c]pyridine], the minimal effective dose in the series on pain threshold in mice (setting [8]) was more than 91 µmol/kg. Further, the ED50 in [4] is more than 91 µmol/kg; in [6] (setting [9]), 50 µmol/kg. The EC50 in series [5] was more than 13 µM. In series [7], this compound came in with an IC50 of 10 µM.

Consider `C#CCOc1noc2c1CNCC2` [O--Propargyl-THPO, 3-(2-Propynyloxy)-4,5,6,7-tetrahydroisoxazolo[4,5-c]pyridine], for which the minimal effective dose with pain threshold in mice (setting [8]) turned out to be 11 µmol/kg. In addition, the ED50 is 86 µmol/kg in series [4] and 3 µmol/kg in series [6] (setting [9]). Besides, in [5], the EC50 was found to be 1.2 µM. The compound further gave an IC50 in series [7] of 5.8 µM.

Regarding `CCOc1noc2c1CNCC2` [O--Ethyl-THPO, 3-Ethoxy-4,5,6,7-tetrahydroisoxazolo[4,5-c]pyridine], the minimal effective dose with pain threshold in mice (setting [8]) was more than 98 µmol/kg. The results for the ED50 in series [4] and in series [6] (setting [9]) were more than 98 µmol/kg and 7.3 µmol/kg, respectively. Besides, in series [5], the EC50 came out at 3.4 µM. For the same compound, the IC50 in series [7] turned out to be 6 µM.

Turning to `CCOc1noc2c1CN(C)CC2` [O--Ethyl-5-Methyl-THPO, 3-Ethoxy-5-methyl-4,5,6,7-tetrahydroisoxazolo[4,5-c]pyridine], in the series on pain threshold in mice (setting [8]), the minimal effective dose was more than 91 µmol/kg. The results for the ED50 in series [4] and in series [6] (setting [9]) were more than 91 µmol/kg and 41 µmol/kg, respectively. Moreover, the EC50 in series [5] is 1.6 µM. Further, the IC50 in series [7] came out at 2.4 µM.

Take `CC(C)Oc1noc2c1CNCC2` [O--Isopropyl-THPO, 3-Isopropoxy-4,5,6,7-tetrahydroisoxazolo[4,5-c]pyridine]: the minimal effective dose in the series on pain threshold in mice (setting [8]) was more than 46 µmol/kg. The ED50 was more than 91 µmol/kg in series [4] and 19 µmol/kg in series [6] (setting [9]). Moreover, the EC50 in series [5] was more than 13 µM. Moreover, in series [7], the IC50 turned out to be 3.5 µM.

With `CCN1CCc2onc(OC)c2C1` [O--Methyl-5-Ethyl-THPO, 3-Methoxy-5-ethyl-4,5,6,7-tetrahydroisoxazolo[4,5-c]pyridine], in the series on pain threshold in mice (setting [8]), the minimal effective dose was 84 µmol/kg. In addition, the EC50 in [5] was more than 13 µM. Also, the ED50 in series [6] (setting [9]) came to 84 µmol/kg. In series [7], this compound displayed an IC50 of 15 µM.

Regarding `C=CCOc1noc2c1CNCC2` [O--Allyl-THPO, 3-Allyloxy-4,5,6,7-tetrahydroisoxazolo[4,5-c]pyridine], in the series with pain threshold in mice (setting [8]), the minimal effective dose amounted to 46 µmol/kg. The ED50 in series [4] was more than 92 µmol/kg; in series [6] (setting [9]), 23 µmol/kg. Besides, the EC50 in [5] was more than 13 µM. The compound further yielded an IC50 in [7] of 9.6 µM.

As to `COc1noc2c1CN(C)CC2` [O,5-Dimethyl-THPO, 3-Methoxy-5-methyl-4,5,6,7-tetrahydroixoxazolo[4,5-c]pyridine], the minimal effective dose in the series on pain threshold in mice (setting [8]) came to 49 µmol/kg. Further, the ED50 came to 99 µmol/kg in series [4] and 29 µmol/kg in series [6] (setting [9]). The EC50 in series [5] was found to be 0.83 µM. The same compound showed an IC50 in series [7] of 27 µM.

(Values after patent US4608378A, “Tetrahydroisoxazolo[4,5-c]pyridine derivatives useful in the treatment of malfunctions of the acetylcholine or muscarinic systems” (H. Lundbeck A/S, priority 1983, dated 1986).)
